US5990170A, “Therapeutic use of mono and bicarboxylic acid amides active at the peripheral cannabinoid receptor” (Lifegroup S.p.A., priority 1994, dated 1999)
Where two headings read alike, the source gives them in different places.

Key:
[1] = Solubility in water and organic solvents; settings: for solubility in water: result in words
RBL-2H3 cells = test: Inhibition of 3H-serotonin release induced by ADNP/DNP-HSA immunogenic stimulation in RBL-2H3 cells; format: cell-based, rat; settings: for EC50: 15 minutes release period (Table 9); for inhibition at 30 µM: RBL-2H3, read-out: 3H-serotonin net release inhibition (%), 30 μM; for functional effect following receptor activation (serotonin release): result in words; for inhibition at 12.5 µM: RBL-2H3, read-out: 3H-serotonin net release inhibition (%), 12.5 μM
[2] = dmso, organic solvent or mixture
[3] = ethanol, organic solvent or mixture
[4] = Rattus norvegicus, RBL-2H3, read-out: EC50, concentration inhibiting by 50% the net release of 3H serotonin, 0.2% DMSO
[5] = Rattus norvegicus, RBL-2H3, 0.25 h, read-out: 3H-serotonin net release (%)
[6] = Rattus norvegicus, RBL-2H3, 0.25 h, read-out: ED50
[7] = Rattus norvegicus, + WIN 55,212-2 (30 μm) (Table 6)
[8] = Rattus norvegicus, - WIN (Table 6)

CCCCCCCCCCCCCCCC(=O)NC(CO)CO [Example 15, 2-(N-palmitoylamino)-1,3-propandiol]
solubility [1, 2]: > 5000 µg/mL
solubility [1, 3]: > 5000 µg/mL
solubility in water [1]: scarcely soluble

CCCCCCCCCCCCCCCC(=O)NCCOP(=O)(O)OCC(O)CO (centres unmarked) [Example 16, N-palmitoylethanolamine glycerophosphate]
solubility [1, 2]: > 10000 µg/mL
solubility ([1]; phosphate buffer, pH 7.4, aqueous buffer): > 1000 µg/mL
solubility in water [1]: scarcely soluble

O=C(/C=C/CCCCCCCCC(=O)NCCCCO)NCCCCO [Example 17, N,N'-bis(4-hydroxybutyl)-trans-2-dodecendiamide]
solubility [1, 2]: > 5000 µg/mL
solubility in water [1]: scarcely soluble

CCCCCCCCCCCC(=O)NCCCCO [Example 18, N-(4-hydroxybutyl)-lauroylamide]
EC50 (RBL-2H3 cells; [4]): 63 µM
solubility [1, 2]: > 10000 µg/mL
solubility [1, 3]: > 10000 µg/mL
solubility in water [1]: scarcely soluble

CCCCCCCC/C=C\CCCCCCCC(=O)NCc1ccc(O)c(OC)c1 [Example 20, N-(4-hydroxy-3-methoxybenzyl)-oleoylamide]
EC50 (RBL-2H3 cells; [4]): 6.3 µM
solubility [1, 2]: > 10000 µg/mL
solubility [1, 3]: > 10000 µg/mL
solubility in water [1]: scarcely soluble

CCCCCCCCCCCCCCCC(=O)NCc1ccc(O)c(OC)c1 [Example 21, N-(4-hydroxy-3-methoxybenzyl)-palmitoylamide]
EC50 (RBL-2H3 cells; [4]): 1.5 µM
solubility [1, 2]: > 10000 µg/mL
solubility [1, 3]: > 10000 µg/mL
solubility in water [1]: scarcely soluble

CCCCCCCCCCCCCCCC(=O)NCCCO [Example 24, N-(3-hydroxypropyl)-palmitamide]
activity at 60 µM (RBL-2H3 cells; Rattus norvegicus, RBL-2H3, 0.25 h, 60 μM, 0.1% DMSO and 0.1% ethanol (Table 3), read-out: 3H-serotonin net release (%)): 67%
inhibition at 60 µM (RBL-2H3 cells; Rattus norvegicus, RBL-2H3, read-out: 3H-serotonin release inhibition %, 0.2% DMSO, 60 μM (Table 8)): 40%
inhibition at 100 µM (RBL-2H3 cells; Rattus norvegicus, RBL-2H3, read-out: 3H-serotonin release inhibition %, 1% DMSO, 100 μM (Table 8)): 88%
EC50 (RBL-2H3 cells; Rattus norvegicus, RBL-2H3, read-out: EC50, concentration inhibiting by 50% the net release of 3H serotonin, 1% DMSO): 7.2 µM
solubility [1, 2]: > 3000 µg/mL
solubility ([1]; n-octanol, organic solvent or mixture): > 10000 µg/mL
solubility in water [1]: scarcely soluble

O=C(/C=C/CCCCCCCCC(=O)N1CCOCC1)N1CCOCC1 [Example 38, 1,10-bis-morpholinylcarbonyl-trans-1-decene]
solubility [1, 2]: > 10000 µg/mL
solubility [1, 3]: > 10000 µg/mL
solubility in water [1]: scarcely soluble

CCCCC/C=C\C/C=C\CCCCCCCC(=O)NCCO [N-(2-hydroxyethyl)-linoleylamide, reference compound]
activity at 100 µM (RBL-2H3 cells; [5]): 100%

Cc1c(C(=O)c2cccc3ccccc23)c2cccc3c2n1[C@H](CN1CCOCC1)CO3 [WIN 55,212-2, reference compound]
3H-serotonin release inhibition (%) (RBL-2H3 cells; 5 μm, (+) N-(2-hydroxyethyl)-palmitoleylamide (Example 19) (Table 7)): 8%
3H-serotonin release inhibition (%) (RBL-2H3 cells; 5 μm, (-) N-(2-hydroxyethyl)-palmitoleylamide (Table 7)): 8%
3H-serotonin release inhibition (%) (RBL-2H3 cells; 10 μm, (+) N-(2-hydroxyethyl)-palmitoleylamide (Example 19) (Table 7)): 10%
3H-serotonin release inhibition (%) (RBL-2H3 cells; 10 μm, (-) N-(2-hydroxyethyl)-palmitoleylamide (Table 7)): 12%
3H-serotonin release inhibition (%) (RBL-2H3 cells; 50 μm, (+) N-(2-hydroxyethyl)-palmitoleylamide (Example 19) (Table 7)): 24%
3H-serotonin release inhibition (%) (RBL-2H3 cells; 50 μm, (-) N-(2-hydroxyethyl)-palmitoleylamide (Table 7)): 76%
3H-serotonin release inhibition (%) (RBL-2H3 cells; 70 μm, (+) N-(2-hydroxyethyl)-palmitoleylamide (Example 19) (Table 7)): 30%
3H-serotonin release inhibition (%) (RBL-2H3 cells; 70 μm, (-) N-(2-hydroxyethyl)-palmitoleylamide (Table 7)): 96%
3H-serotonin release inhibition (%) (RBL-2H3 cells; 100 μm, (+) N-(2-hydroxyethyl)-palmitoleylamide (Example 19) (Table 7)): 56%
3H-serotonin release inhibition (%) (RBL-2H3 cells; 100 μm, (-) N-(2-hydroxyethyl)-palmitoleylamide (Table 7)): 98%
activity at 50 µM (RBL-2H3 cells; [5]): 0%
IC50 (RBL-2H3 cells; [6]): 6.4 µM
inhibition at 30 µM (RBL-2H3 cells; Rattus norvegicus, + anandamide (12.5 μM) (Table 4)): 36%
inhibition at 30 µM (RBL-2H3 cells; Rattus norvegicus, - anandamide (Table 4)): 100%
3H-serotonin net release inhibition (%) (RBL-2H3 cells; WIN 55,212-2 30 μm alone (DNP.HSA line, + WIN) (Table 6)): 69%
IC50 (RBL-2H3 cells; read-out: ED50, inhibition of 3H-serotonin release, + anandamide (12.5 μM) (Table 5), 15 min): 40 µM
functional effect following receptor activation (serotonin release) (RBL-2H3 cells): able to inhibit, in a concentration-dependent way, RBL cells immunogenic activation

CCCCC/C=C\C/C=C\C/C=C\C/C=C\CCCC(=O)O [arachidonic acid, reference compound]
inhibition at 12.5 µM (RBL-2H3 cells; [7]): 59%
inhibition at 12.5 µM (RBL-2H3 cells; [8]): 4%

NCCO [ethanolamine, reference compound]
inhibition at 12.5 µM (RBL-2H3 cells; [7]): 72%
inhibition at 12.5 µM (RBL-2H3 cells; [8]): 6%

CCCCCc1cc(O)c2c(c1)OC(C)(C)[C@@H]1CC=C(C)C[C@@H]21 [Δ8-THC, Δ8-tetrahydrocannabinol, reference compound]
activity at 25 µM (RBL-2H3 cells; [5]): 0%
IC50 (RBL-2H3 cells; [6]): 5 µM
inhibition at 25 µM (RBL-2H3 cells; Rattus norvegicus, RBL-2H3, read-out: 3H-serotonin net release inhibition (%), 25 μM, - anandamide (Table 4)): 100%
functional effect following receptor activation (serotonin release) (RBL-2H3 cells): able to inhibit, in a concentration-dependent way, RBL cells immunogenic activation
